Earlier results, collected in patent US20130030007A1, “Obesity Small Molecules” (AKRON MOLECULES GMBH, priority 2010, published 2013).
Like-named read-outs stand apart in the source and are kept apart here. Non-standard residues stand in square brackets, D forms with d. Residues, ends and D or L forms follow the SMILES beside them. *: point of attachment. Sta = CC(C)C[C@H](N)[C@@H](O)CC(=O)O; Isovaleryl = CC(C)CC(=O)*

Tested on: human ortholog of Drosophila obesity gene
Parameters: key: O: Obesity - obesity pathway interaction; B: validated binding partner
Conditions: cited from earlier work
[1] = interaction of the small molecule with the human ortholog(s) / Drosophila gene(s) listed in the same table line

SMILES	Type: Type of interaction	Type: Type of interaction [1]
C[C@]12CCC(=O)C=C1CC[C@@H]1[C@@H]2[C@@H](O)C[C@@]2(C)[C@H]1CC[C@]2(O)C(=O)CO [Optef]	O	–
CO[C@H]1O[C@H](COS(=O)(=O)O)[C@@H](O[C@@H]2O[C@@H](C(=O)O)[C@@H](O[C@H]3O[C@H](COS(=O)(=O)O)[C@@H](O[C@@H]4O[C@H](C(=O)O)[C@@H](O[C@H]5O[C@H](COS(=O)(=O)O)[C@@H](O)[C@H](O)[C@H]5NS(=O)(=O)O)[C@H](O)[C@H]4O)[C@H](OS(=O)(=O)O)[C@H]3NS(=O)(=O)O)[C@H](O)[C@H]2OS(=O)(=O)O)[C@H](O)[C@H]1NS(=O)(=O)O [Org 31540]	–	B
Cc1ccccc1C(OCCN(C)C)c1ccccc1 (stereo not drawn) [Orphenadrine]	–	O
C[C@@H]1O[C@@H](O[C@H]2C[C@@H](O)[C@]3(CO)[C@H]4[C@H](O)C[C@]5(C)[C@@H](C6=CC(=O)OC6)CC[C@]5(O)[C@@H]4CC[C@]3(O)C2)[C@H](O)[C@H](O)[C@H]1O [Ouabain]	–	B
NCCc1cc(O)c(O)cc1O [Oxidopamine]	B	–
CCN(CC)CC#CCOC(=O)C(O)(c1ccccc1)C1CCCCC1 (stereo not drawn) [Oxytrol]	–	O
COc1cccc(-c2cc(=O)c3ccccc3o2)c1N [PD 98059]	B	–
O=[N+]([O-])c1ccc(-c2nc(-c3ccc(F)cc3)c(-c3ccncc3)[nH]2)cc1 [PD 169316]	B	–
CCN(CC)CCCCNc1ncc2cc(-c3cc(OC)cc(OC)c3)c(NC(=O)NC(C)(C)C)nc2n1 [PD 173074]	B	–
CCCC(=O)O[C@@H]1[C@@H](C)[C@@]2(O)[C@@H](C=C(CO)C[C@]3(O)C(=O)C(C)=C[C@@H]23)[C@@H]2C(C)(C)[C@]12OC(=O)CCC [PDBU]	O	–
O=S(=O)(F)Cc1ccccc1 [PMSF]	O	–
CC(=O)O[C@H]1C(=O)[C@@]2(C)[C@H]([C@H](OC(=O)c3ccccc3)[C@]3(O)C[C@H](OC(=O)[C@H](O)[C@@H](NC(=O)c4ccccc4)c4ccccc4)C(C)=C1C3(C)C)[C@]1(OC(C)=O)CO[C@@H]1C[C@@H]2O [Paclitaxel]	–	B
O=C1C=C2C(=CCOC2O)O1 (stereo not drawn) [Patulin]	O	–
CC1=C\[C@H](C)C[C@@]2(C)CC[C@@H](O2)[C@@]23CC[C@@](C)(C[C@@H](O2)[C@H]2O[C@](C)(CC2=O)[C@@H](O)[C@@H]2CC[C@@]4(CCC[C@H](O4)[C@@H](C)C(=O)O[C@@H]4C[C@@H]([C@@]5(O)OCC[C@@H](C)[C@H]5O)O[C@@H]4\C=C\1)O2)O3 [Pectenotoxin II]	B	–
Nc1nc2[nH]cc(CCc3ccc(C(=O)N[C@@H](CCC(=O)O)C(=O)O)cc3)c2c(=O)[nH]1 [Pemetrexed]	–	B
CC(=O)CCCCn1c(=O)c2c(ncn2C)n(C)c1=O [Pentoxifylline]	–	B
Cc1c(N)nc([C@H](CC(N)=O)NC[C@H](N)C(N)=O)nc1C(=O)N[C@H](C(=O)N[C@H](C)[C@@H](O)[C@H](C)C(=O)N[C@H](C(=O)NCCc1nc(-c2nc(C(=O)NCCCN[C@@H](C)c3ccccc3)cs2)cs1)[C@@H](C)O)[C@@H](O[C@@H]1O[C@@H](CO)[C@@H](O)[C@H](O)[C@@H]1O[C@H]1O[C@H](CO)[C@@H](O)[C@H](OC(N)=O)[C@@H]1O)c1c[nH]cn1 [Peplomycin]	B	–
CC(C)CC(=O)N[C@H](C(=O)N[C@H](C(=O)N[C@@H](CC(C)C)[C@@H](O)CC(=O)N[C@@H](C)C(=O)N[C@@H](CC(C)C)[C@@H](O)CC(=O)O)C(C)C)C(C)C [Pepstatin A] (Isovaleryl-VV[Sta]A[Sta]-OH)	O	–
CN1CCN(CCCN2c3ccccc3Sc3ccccc32)CC1 [Perazine]	–	O
C=C(C)[C@@H]1CC=C(CO)CC1 [Perillol]	–	B
CCC[C@H](N[C@@H](C)C(=O)N1[C@H](C(=O)O)C[C@@H]2CCCC[C@@H]21)C(=O)OCC [Perindopril]	–	B
CCC(c1ccccc1)c1c(O)c2ccccc2oc1=O (stereo not drawn) [Phenprocoumon]	–	O
O=C1NC(=O)C(c2ccccc2)(c2ccccc2)N1 [Phenytoin]	–	B

SMILES	Type: Type of interaction	Type: Type of interaction [1]
CN1C(C(=O)Nc2ccccn2)=C(O)c2ccccc2S1(=O)=O [Piroxicam]	–	B
COc1cc2nc(N3CCN(C(=O)c4ccco4)CC3)nc(N)c2cc1OC [Prazosin]	–	O
C[C@]12C=CC(=O)C=C1CC[C@@H]1[C@@H]2C(=O)C[C@@]2(C)[C@H]1CC[C@]2(O)C(=O)CO [Prednisone]	–	O
CCC1(c2ccccc2)C(=O)NCNC1=O [Primidone]	–	B
CCCC(C(=O)OCCN(CC)CC)(c1ccccc1)c1ccccc1 [Proadifen]	–	O
CCCc1cc(=O)[nH]c(=S)[nH]1 [Procasil]	O	–
CC(C)OC(=O)C(C)(C)Oc1ccc(C(=O)c2ccc(Cl)cc2)cc1 [Procetofen]	O	–
CC(=O)[C@@]1(O)CC[C@H]2[C@@H]3CCC4=CC(=O)CC[C@]4(C)[C@H]3CC[C@@]21C [Prodix]	B	–
CCC(=O)[C@@]1(C)CC[C@H]2[C@@H]3CCC4=CC(=O)CCC4=C3CC[C@@]21C [Promegestone]	–	O
CC(C)c1cccc(C(C)C)c1O [Propofol]	B	–
Cc1cc(O)c2c(=O)c3c(O)cc(O)c4c5c(O)cc(O)c6c(=O)c7c(O)cc(CO)c8c1c2c(c34)c(c65)c78 [Pseudohypericin]	O	–
CC(=O)N[C@H]1/C(=N/OC(=O)Nc2ccccc2)O[C@H](CO)[C@@H](O)[C@@H]1O [Pugnac]	–	B
O=C(c1ccc(OCCN2CCCCC2)cc1)c1c(-c2ccc(O)cc2)sc2cc(O)ccc12 [Raloxifene]	–	B
O[C@]12C=C(c3nccc4c3[nH]c3ccccc34)[C@@H]3CCN(CCCC/C=C\CC1)C[C@@]31C[C@@H]3/C=C\CCCCN3[C@H]12 [manzamine A]	O	–
O=c1c(O)c(-c2ccc(O)c(O)c2)oc2cc(O)cc(O)c12 [meletin]	–	B
Nc1ccc(O)c(C(=O)O)c1 [mesalamine]	–	B
Cc1cccc(C)c1N(Cn1cccn1)C(=O)CCl [metazachlor]	–	B
Cc1nc2nc(N)[nH]c(=O)c2nc1[C@@H](C)Nc1ccc(C[C@H](O)[C@H](O)[C@H](O)CO[C@H]2O[C@H](COP(=O)(O)O[C@@H](CCC(=O)O)C(=O)O)[C@@H](O)[C@H]2O)cc1 [methanopterin]	–	B
COc1ccc2c(c1)[C@@]13CCCC[C@H]1[C@@H](C2)NCC3 [methoxymorphinan]	O	–
Clc1ccc(COC(Cn2ccnc2)c2ccc(Cl)cc2Cl)c(Cl)c1 (stereo not drawn) [miconazole]	–	O
CCCCN1C[C@H](O)[C@@H](O)[C@H](O)[C@H]1CO [miglustat]	–	O
CN1CCN2c3ncccc3Cc3ccccc3C2C1 (stereo not drawn) [mirtazapine]	–	B
